System: Influenza type A (strain A/PR/8/34, ATCC VR-95)
Assay: Influenza antiviral assay: inhibition of virus-induced cytopathic effects (CPE) in MDCK cells, XTT dye reduction
Assay type: cell-based
Conditions: Influenza A (H1N1), strain A/PR/8/34, MDCK cells, CPE inhibition at 4 days

First: O=C1c2c(O)c(=O)ccn2N(C23c4ccccc4CC2Cc2c(Cl)cccc23)CN1CCF (centres unmarked) [Compound A114]
Second: CC1N(CC(F)F)C(=O)c2c(O)c(=O)ccn2N1C12c3ccccc3CC1Cc1c2ccc(F)c1F (centres unmarked) [Compound A136]
The EC50 of the first is lower: 125 to 250 nM for the first, 375 to 500 nM for the second.

In the case of CC1N(CC(F)F)C(=O)c2c(O)c(=O)ccn2N1C12c3ccccc3CC1Cc1c2ccc(F)c1F (centres unmarked) [Compound A137], the EC50 is reported as 125 to 250 nM.

Same assay, conditions: Influenza A virus, H1N1 / PR/8, MDCK, 96 h, strain A/PR/8/34, MDCK cells, CPE inhibition at 4 days

First: O=C1c2c(O)c(=O)ccn2N(C23c4ccccc4CC2Cc2c3ccc(F)c2F)CN1C1CCC1 (centres unmarked) [Compound A92, 3-Cyclobutyl-1-(1,2-difluoro-9a,10-dihydroindeno[1,2-a]inden-4b(9H)-yl)-5-hydroxy-2,3-dihydro-1H-pyrido[2,1-f][1,2,4]triazine-4,6-dione]
Second: O=C1c2c(O)c(=O)ccn2N(C23c4ccccc4CC2Cc2c3ccc(F)c2F)CN1CC1CCCC1 (centres unmarked) [Compound A100]
The EC50 of the first is lower: 250 to 375 nM for the first, greater than 500 nM for the second. The first is the more potent here.

Compared with O=C1c2c(O)c(=O)ccn2N(C23c4ccccc4CC2Cc2c(Cl)cccc23)CN1C1CC1 (centres unmarked) [Compound A93], O=C1c2c(O)c(=O)ccn2N(C23c4ccccc4CC2Cc2c(Cl)cccc23)CN1C1CCC1 (centres unmarked) [Compound A103] is higher in EC50: 125 to 250 nM for the first, 250 to 375 nM for the second. The first is the more potent here.

First: CC1N(C)C(=O)c2c(O)c(=O)ccn2N1C12c3ccccc3CC1Cc1c(Cl)cccc12 (centres unmarked) [Compound A94]
Second: CCN1C(=O)c2c(O)c(=O)ccn2N(C23c4ccccc4CC2Cc2c(Cl)cccc23)C1C (centres unmarked) [Compound A95]
The EC50 of the first is higher: 250 to 375 nM for the first, 125 to 250 nM for the second. The second is the more potent here.

CN1CN(C23c4cc(F)ccc4CC2Cc2c(Cl)cccc23)n2ccc(=O)c(O)c2C1=O (centres unmarked) [Compound A96] and CN1CN(C23c4ccccc4CC2Cc2c3ccc(Cl)c2F)n2ccc(=O)c(O)c2C1=O (centres unmarked) [Compound A160] cannot be ordered by EC50: less than 125 nM for the first, less than 125 nM for the second.

First: CCN1CN(C23c4ccccc4CC2Cc2c3ccc(C)c2F)n2ccc(=O)c(O)c2C1=O (centres unmarked) [Compound A98]
Second: CCN1CN(C23c4ccccc4CC2Cc2c3ccc(Cl)c2Cl)n2ccc(=O)c(O)c2C1=O (centres unmarked) [Compound A161]
The EC50 of the first is higher: 250 to 375 nM for the first, less than 125 nM for the second. The second is the more potent here.

First: O=C1c2c(O)c(=O)ccn2N(C23c4ccccc4CC2Cc2c3ccc(F)c2F)CN1CC1CCCCC1 (centres unmarked) [Compound A99]
Second: O=C1c2c(O)c(=O)ccn2N(C23c4ccccc4CC2Cc2c3ccc(F)c2F)CN1CC1CCCCO1 (centres unmarked) [Compound A131]
The EC50 of the first is higher: greater than 500 nM for the first, 375 to 500 nM for the second. The second is the more potent here.

COCCN1CN(C23c4ccccc4CC2Cc2c(Cl)cccc23)n2ccc(=O)c(O)c2C1=O (centres unmarked) [Compound A101] and O=C1c2c(O)c(=O)ccn2N(C23c4ccccc4CC2Cc2c(Cl)cccc23)CN1CCF (centres unmarked) [Compound A111] fall in the same range of EC50: 125 to 250 nM for the first, 125 to 250 nM for the second.

First: O=C1c2c(O)c(=O)ccn2N(C23c4ccccc4CC2Cc2c(Cl)cccc23)CN1CCCF (centres unmarked) [Compound A102]
Second: O=C1c2c(O)c(=O)ccn2N(C23c4ccccc4CC2Cc2c(Cl)cccc23)CN1CC(F)F (centres unmarked) [Compound A105]
The EC50 of the first is higher: 125 to 250 nM for the first, less than 125 nM for the second. The second is the more potent here.

Compared with O=C1c2c(O)c(=O)ccn2N(C23c4ccccc4CC2Cc2c(Cl)cccc23)CN1CC1CCCC1 (centres unmarked) [Compound A104], O=C1c2c(O)c(=O)ccn2N(C23c4ccccc4CC2Cc2c(Cl)cccc23)CN1CC1CCC1 (centres unmarked) [Compound A112] is lower in EC50: greater than 500 nM for the first, 375 to 500 nM for the second.

CN1C(=O)c2c(O)c(=O)ccn2N(C23C(=Cc4c(F)cccc42)Cc2c(F)cccc23)C1CN (centres unmarked) [Compound A106, 2-(aminomethyl)-1-(1,8-difluoroindeno[1,2-a]inden-4b(9H)-yl)-5-hydroxy-3-methyl-2,3-dihydro-1H-pyrido[2,1-f][1,2,4]triazine-4,6-dione] and CN1C(=O)c2c(O)c(=O)ccn2N(C23c4cccc(F)c4CC2Cc2c(F)cccc23)C1CN (centres unmarked) [Compound A107, 2-(aminomethyl)-1-(1,8-difluoro-9a,10-dihydroindeno[1,2-a]inden-4b(9H)-yl)-5-hydroxy-3-methyl-2,3-dihydro-1H-pyrido[2,1-f][1,2,4]triazine-4,6-dione] fall in the same range of EC50: 125 to 250 nM for the first, 125 to 250 nM for the second.

O=C1c2c(O)c(=O)ccn2N(C23c4ccccc4CC2Cc2c(Cl)cccc23)CN1CC1CC1 (centres unmarked) [Compound A108] and CC1N(CC2CC2)C(=O)c2c(O)c(=O)ccn2N1C12c3ccccc3CC1Cc1c(Cl)cccc12 (centres unmarked) [Compound A140] fall in the same range of EC50: 250 to 375 nM for the first, 250 to 375 nM for the second.

First: COCCN1CN(C23c4ccccc4CC2Cc2ccccc23)n2ccc(=O)c(O)c2C1=O (centres unmarked) [Compound A110]
Second: Cc1cc(CN2CN(C34c5ccccc5CC3Cc3ccccc34)n3ccc(=O)c(O)c3C2=O)no1 (centres unmarked) [Compound A144]
The EC50 of the first is higher: 125 to 250 nM for the first, less than 125 nM for the second. The second is the more potent here.

Compared with COCCN1C(=O)c2c(O)c(=O)ccn2N(C23c4ccccc4CC2Cc2c3ccc(F)c2F)C1C (centres unmarked) [Compound A113], COCCN1C(=O)c2c(O)c(=O)ccn2N(C23c4ccccc4CC2Cc2c(F)cccc23)C1C (centres unmarked) [Compound A124] is higher in EC50: 125 to 250 nM for the first, 375 to 500 nM for the second.

Compared with CC1N(CCF)C(=O)c2c(O)c(=O)ccn2N1C12c3ccccc3CC1Cc1c(Cl)cccc12 (centres unmarked) [Compound A115], CCCN1C(=O)c2c(O)c(=O)ccn2N(C23c4ccccc4CC2Cc2c(Cl)cccc23)C1C (centres unmarked) [Compound A132] is lower in EC50: 375 to 500 nM for the first, 250 to 375 nM for the second. The second is the more potent here.

Compared with CCN1CN(C23c4ccccc4CC2(C)Cc2cc(F)ccc23)n2ccc(=O)c(O)c2C1=O (centres unmarked) [Compound A116], CN1CN(C23c4ccccc4CC2(C)Cc2cc(F)ccc23)n2ccc(=O)c(O)c2C1=O (centres unmarked) [Compound A126] is higher in EC50: less than 125 nM for the first, 125 to 250 nM for the second. The first is the more potent here.

CC(C)CN1C(=O)c2c(O)c(=O)ccn2N(C23c4ccccc4CC2Cc2c(F)cccc23)C1C (centres unmarked) [Compound A117] and CC(C)CN1C(=O)c2c(O)c(=O)ccn2N(C23c4ccccc4CC2Cc2c(Cl)cccc23)C1C (centres unmarked) [Compound A118] cannot be ordered by EC50: greater than 500 nM for the first, greater than 500 nM for the second.

CC1N(CCF)C(=O)c2c(O)c(=O)ccn2N1C12c3ccccc3CC1Cc1c(F)cccc12 (centres unmarked) [Compound A121] and CCN1C(=O)c2c(O)c(=O)ccn2N(C23c4ccccc4CC2Cc2c(F)cccc23)C1C (centres unmarked) [Compound A138] fall in the same range of EC50: 125 to 250 nM for the first, 125 to 250 nM for the second.

First: COCCN1C(=O)c2c(O)c(=O)ccn2N(C23c4ccccc4CC2Cc2c(Cl)cccc23)C1C (centres unmarked) [Compound A125]
Second: CC1N(CC(F)F)C(=O)c2c(O)c(=O)ccn2N1C12c3ccccc3CC1Cc1c(F)cccc12 (centres unmarked) [Compound A139]
The EC50 of the first is higher: 250 to 375 nM for the first, 125 to 250 nM for the second. The second is the more potent here.

First: CC(C)CN1C(=O)c2c(O)c(=O)ccn2N(C23c4ccccc4CC2Cc2c3ccc(F)c2F)C1C (centres unmarked) [Compound A127]
Second: CC1N(CC2CC2)C(=O)c2c(O)c(=O)ccn2N1C12c3ccccc3CC1Cc1c2ccc(F)c1F (centres unmarked) [Compound A128]
The EC50 of the first is higher: greater than 500 nM for the first, 250 to 375 nM for the second. The second is the more potent here.

First: CC1N(CC2CC2)C(=O)c2c(O)c(=O)ccn2N1C12c3ccccc3CC1Cc1c(F)cccc12 (centres unmarked) [Compound A129]
Second: CC1N(C2CCC2)C(=O)c2c(O)c(=O)ccn2N1C12c3ccccc3CC1Cc1c(F)cccc12 (centres unmarked) [Compound A141]
The EC50 of the first is lower: 250 to 375 nM for the first, 375 to 500 nM for the second.

Compared with O=C1c2c(O)c(=O)ccn2N(C23c4cccc(F)c4CC2Cc2c(F)cccc23)CN1CC1CCCCO1 (centres unmarked) [Compound A130], O=C1c2c(O)c(=O)ccn2N(C23c4ccccc4CC2Cc2c(F)cccc23)CN1CC1CCCCO1 (centres unmarked) [Compound A133] is lower in EC50: greater than 500 nM for the first, 125 to 250 nM for the second.

CN1CN(C23c4ccccc4CC2Cc2cccc(F)c23)n2ccc(=O)c(O)c2C1=O (centres unmarked) [Compound A145] and CN1CN(C23c4ccccc4CC2Cc2c3ccc(Cl)c2Cl)n2ccc(=O)c(O)c2C1=O (centres unmarked) [Compound A146] cannot be ordered by EC50: less than 125 nM for the first, less than 125 nM for the second.

CCN1CN(C23c4ccccc4CC2(C)Cc2ccccc23)n2ccc(=O)c(O)c2C1=O (centres unmarked) [Compound A147] and CCN1CN(C23c4ccccc4CC2(OC)Cc2ccccc23)n2ccc(=O)c(O)c2C1=O (centres unmarked) [Compound A152] cannot be ordered by EC50: less than 125 nM for the first, less than 125 nM for the second.

CCCN1CN(C23c4ccccc4CC2Cc2c3ccc(F)c2F)n2ccc(=O)c(O)c2C1=O (centres unmarked) [Compound A148] and CC(C)CN1CN(C23c4ccccc4CC2Cc2c3ccc(F)c2F)n2ccc(=O)c(O)c2C1=O (centres unmarked) [Compound A149] cannot be ordered by EC50: less than 125 nM for the first, less than 125 nM for the second.

CN1CN(C23c4ccccc4CC2(C)Cc2ccccc23)n2ccc(=O)c(O)c2C1=O (centres unmarked) [Compound A150] and CCC12Cc3ccccc3C1(N1CN(C)C(=O)c3c(O)c(=O)ccn31)c1ccccc1C2 (centres unmarked) [Compound A162] cannot be ordered by EC50: less than 125 nM for the first, less than 125 nM for the second.

CCN1CN(C23c4cccc(F)c4CC2Cc2c(Cl)cccc23)n2ccc(=O)c(O)c2C1=O (centres unmarked) [Compound A151] and CCCN1CN(C23c4cccc(F)c4CC2Cc2c(F)cccc23)n2ccc(=O)c(O)c2C1=O (centres unmarked) [Compound A153] cannot be ordered by EC50: less than 125 nM for the first, less than 125 nM for the second.

First: CC(C)CN1CN(C23c4cccc(F)c4CC2Cc2c(F)cccc23)n2ccc(=O)c(O)c2C1=O (centres unmarked) [Compound A156]
Second: CCN1CN(C23c4ccccc4CC2(C)Cc2c3ccc(F)c2F)n2ccc(=O)c(O)c2C1=O (centres unmarked) [Compound A164]
The EC50 of the first is higher: 250 to 375 nM for the first, less than 125 nM for the second.

First: CCN1CN(C23c4ccccc4CC2(CC)Cc2ccccc23)n2ccc(=O)c(O)c2C1=O (centres unmarked) [Compound A157]
Second: CCC1N(C)C(=O)c2c(O)c(=O)ccn2N1C12c3ccccc3CC1Cc1ccccc12 (centres unmarked) [Compound A166]
The EC50 of the first is higher: 125 to 250 nM for the first, less than 125 nM for the second. The second is the more potent here.

First: CC1N(C)C(=O)c2c(O)c(=O)ccn2N1C12c3ccccc3CC1Cc1ccccc12 (centres unmarked) [Compound A158]
Second: CN1CN(C23c4ccccc4CC2(C)Cc2c3ccc(F)c2F)n2ccc(=O)c(O)c2C1=O (centres unmarked) [Compound A165]
The EC50 of the first is higher: 125 to 250 nM for the first, less than 125 nM for the second.

With CC(C)N1CN(C23c4ccccc4CC2(C)Cc2c3ccc(F)c2F)n2ccc(=O)c(O)c2C1=O (centres unmarked) [Compound A167] the EC50 was less than 125 nM.

Reference: patent publication US12037333B2, “Pyridopyrazine and pyridotriazine inhibitors of influenza virus replication” (priority 2018, dated 2024)
